According to ChEMBL document CHEMBL3808319, “Development of novel cyclic peptides as pro-apoptotic agents” (Eur J Med Chem, 2016):
Active and inactive are the calls of the source. The rule behind the calls is not given here. *1 amine or outer side, *2 acyl side, *3 side chain or, on linkers, in order; H or OH if unused. Where a SMILES comes first, the peptide text is derived from it. [ ]: non-standard residue; d: D form. The star is where a group is joined. NH(CH2)2O(CH2)2NH2 = NCCOCCN*; ΔPro = O=C(O)[C@@H]1C=CCN1; CO = O=C([*:1])[*:2]; Bn = c1ccc(C*)cc1; GABA = NCCCC(=O)O; βAla = NCCC(=O)O

How the values were obtained:
HL-60 [1] = experiment: Induction of apoptosis in human HL60 cells assessed as accumulation at subG0/G1 phase at 50 uM after 24 hrs by Annexin V and propidium iodide staining based flow cytometric analysis (reference value: 3.14 +/- 0.9 %); format: functional
HL-60 [2] = experiment: Induction of apoptosis in human HL60 cells assessed as accumulation at subG0/G1 phase after 24 hrs by Annexin V and propidium iodide staining based flow cytometric analysis; format: functional, cell-based
HL-60 [3] = experiment: Induction of apoptosis in human HL60 cells assessed as reduction in accumulation at G0/G1 phase after 24 hrs by propidium iodide staining based flow cytometric analysis; format: functional, cell-based
HL-60 [4] = experiment: Induction of apoptosis in human HL60 cells assessed as reduction in accumulation at G2/M phase after 24 hrs by propidium iodide staining based flow cytometric analysis; format: functional, cell-based
HL-60 [5] = experiment: Induction of apoptosis in human HL60 cells assessed as loss of mitochondrial inner transmembrane potential at 50 uM after 24 hrs by TMRM dye based flow cytometric analysis; format: functional, cell-based
Tubulin (Sus scrofa) [6] = molecular target: T1, Tubulin (Sus scrofa) (UniProt P02554+P02550); experiment: Induction of pig tubulin polymerization at 10 uM after 60 mins by spectroscopic analysis; format: protein assay
MCF7 = experiment: Induction of apoptosis in human MCF7 cells assessed as accumulation at subG0/G1 phase at 50 uM after 48 hrs by Annexin V and propidium iodide staining based flow cytometric analysis (reference value: 8.5 +/- 2.4 %); format: functional
RBL-2H3 = experiment: Induction of tubulin polymerization in rat RBL2H3 cells assessed as induction of alteration of microtubule network at 50 uM preincubated for 16 hrs measured after 24 hrs by confocal laser scanning microscopic analysis; format: cell-based
[7] = Induction of apoptosis in human EBV-B cells assessed as accumulation at subG0/G1 phase at 25 uM after 24 hrs by Annexin V and propidium iodide staining based flow cytometric analysis (reference value: 1.6 %); format: functional
Jurkat = experiment: Induction of apoptosis in human Jurkat cells assessed as accumulation at subG0/G1 phase at 25 uM after 24 hrs by Annexin V and propidium iodide staining based flow cytometric analysis (reference value: 3.9 %); format: functional
HL-60 [8] = experiment: Induction of apoptosis in human HL60 cells assessed as accumulation at subG0/G1 phase at 25 uM after 24 hrs by Annexin V and propidium iodide staining based flow cytometric analysis (reference value: 5 %); format: functional
B16-F1 = experiment: Induction of apoptosis in mouse B16-F1 cells assessed as accumulation at subG0/G1 phase at 50 uM after 24 hrs Annexin V and propidium iodide staining based flow cytometric analysis (reference value: 1.9 +/- 1.6 %); format: functional
A-375 [9] = experiment: Induction of apoptosis in human A375 cells assessed as accumulation at subG0/G1 phase at 50 uM after 72 hrs by Annexin V and propidium iodide staining based flow cytometric analysis (reference value: 7 +/- 1 %); format: functional
B16-F10 = experiment: Induction of apoptosis in mouse B16F10 cells assessed as accumulation at subG0/G1 phase at 50 uM after 24 hrs by Annexin V and propidium iodide staining based flow cytometric analysis (reference value: 3.7 +/- 3 %); format: functional
[10] = Induction of apoptosis in human 501mel cells assessed as accumulation at subG0/G1 phase at 50 uM after 72 hrs by Annexin V and propidium iodide staining based flow cytometric analysis (reference value: 9 +/- 1.8%); format: functional
Tubulin (Sus scrofa) [11] = molecular target: T1, Tubulin (Sus scrofa); experiment: Induction of pig tubulin polymerization at 100 uM after 60 mins by spectroscopic analysis; format: protein assay
HL-60 [12] = experiment: Induction of apoptosis in human HL60 cells assessed as accumulation at subG0/G1 phase at 100 uM after 24 hrs by Annexin V and propidium iodide staining based flow cytometric analysis (reference value: 3.14 +/- 0.9 %); format: functional
Homo sapiens [13] = species on record: Homo sapiens; experiment: Induction of apoptosis in human 501mel cells assessed as accumulation at subG0/G1 phase at 100 uM after 72 hrs by Annexin V and propidium iodide staining based flow cytometric analysis; format: functional, cell-based
A-375 [14] = experiment: Induction of apoptosis in human A375 cells assessed as accumulation at subG0/G1 phase at 100 uM after 72 hrs by Annexin V and propidium iodide staining based flow cytometric analysis; format: functional, cell-based
A-375 [15] = experiment: Induction of apoptosis in human A375 cells assessed as accumulation at subG0/G1 phase at 50 uM after 24 hrs by Annexin V and propidium iodide staining based flow cytometric analysis (reference value: 7 +/- 1 %); format: functional, cell-based
Homo sapiens [16] = species on record: Homo sapiens; experiment: Induction of apoptosis in human 501mel cells assessed as accumulation at subG0/G1 phase at 50 uM after 24 hrs by Annexin V and propidium iodide staining based flow cytometric analysis (reference value: 9 +/- 1.8 %); format: functional, cell-based

T1 sequence (P02550 whole entry, looked up): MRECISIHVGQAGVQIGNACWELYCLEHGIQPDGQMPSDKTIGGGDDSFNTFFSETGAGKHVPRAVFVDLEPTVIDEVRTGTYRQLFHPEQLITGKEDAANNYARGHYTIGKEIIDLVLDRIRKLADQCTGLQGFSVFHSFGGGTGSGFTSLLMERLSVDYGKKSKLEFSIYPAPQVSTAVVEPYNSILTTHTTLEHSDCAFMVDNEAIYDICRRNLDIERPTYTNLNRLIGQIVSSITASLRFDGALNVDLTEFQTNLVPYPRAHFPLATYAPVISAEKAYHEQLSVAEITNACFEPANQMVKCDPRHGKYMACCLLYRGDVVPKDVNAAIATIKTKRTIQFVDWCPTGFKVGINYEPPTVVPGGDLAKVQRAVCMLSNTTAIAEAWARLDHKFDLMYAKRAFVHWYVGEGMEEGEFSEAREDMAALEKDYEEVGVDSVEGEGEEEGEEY
T1 sequence (P02554 whole entry, looked up): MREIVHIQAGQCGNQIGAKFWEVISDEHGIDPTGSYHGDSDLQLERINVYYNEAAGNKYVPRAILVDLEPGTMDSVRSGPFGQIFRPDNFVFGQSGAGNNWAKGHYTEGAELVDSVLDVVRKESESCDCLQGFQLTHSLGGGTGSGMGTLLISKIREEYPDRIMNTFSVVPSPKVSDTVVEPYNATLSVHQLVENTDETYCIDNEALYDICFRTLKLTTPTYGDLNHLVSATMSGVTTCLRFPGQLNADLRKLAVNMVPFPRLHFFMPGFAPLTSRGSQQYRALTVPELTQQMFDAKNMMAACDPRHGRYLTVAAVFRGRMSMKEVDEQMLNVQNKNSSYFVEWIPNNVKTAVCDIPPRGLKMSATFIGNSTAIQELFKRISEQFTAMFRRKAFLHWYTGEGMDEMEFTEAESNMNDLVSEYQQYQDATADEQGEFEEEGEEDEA

CC[C@H](C)[C@@H]1NC(=O)NCCOCCCNC(=O)[C@H](Cc2ccccc2)NC(=O)[C@H](Cc2ccc(OCc3ccccc3)cc2)NC(=O)[C@@H]2C=CCN2C(=O)[C@H](C(C)C)NC1=O
Activity (HL-60 [1]): 77%
Activity (HL-60 [2]): Dose-dependent effect
Activity (HL-60 [3]): Dose-dependent effect
Activity (HL-60 [4]): Dose-dependent effect
Activity (HL-60 [5]): Active

CC[C@H](C)[C@@H]1NC(=O)NCCOCCNC(=O)[C@H](Cc2ccccc2)NC(=O)[C@H](Cc2ccc(O)cc2)NC(=O)[C@@H]2C=CCN2C(=O)[C@H](C(C)C)NC1=O
Activity (HL-60 [1]): 5%

CC(=O)O[C@H]1C(=O)[C@@]2(C)[C@H]([C@H](OC(=O)c3ccccc3)[C@]3(O)C[C@H](OC(=O)[C@H](O)[C@@H](NC(=O)c4ccccc4)c4ccccc4)C(C)=C1C3(C)C)[C@]1(OC(C)=O)CO[C@@H]1C[C@@H]2O
Activity (Tubulin (Sus scrofa) [6]): Active

CC[C@H](C)[C@H](NC(=O)[C@@H]1CCCN1C(=O)[C@@H]1CCCN1C(C)=O)C(=O)N[C@H](C(=O)N1CCC[C@H]1C(=O)N[C@@H](Cc1ccc(O)cc1)C(=O)N[C@@H](Cc1ccccc1)C(=O)N(C)C)C(C)C (Ac-PPIVPYF-NMe2)
Activity (HL-60 [1]): inactive

CC[C@H](C)[C@H](NC(=O)[C@@H]1CCCN1C(=O)[C@@H]1CCCN1C(=O)CCCN)C(=O)N[C@H](C(=O)NCC(=O)N[C@@H](Cc1ccc(O)cc1)C(=O)N[C@@H](Cc1ccccc1)C(=O)O)C(C)C (H-[GABA]PPIVGYF-OH)
Activity (HL-60 [1]): inactive

CC[C@H](C)[C@H](NC(=O)[C@@H]1CCCN1C(=O)[C@@H]1CCCN1C(=O)CCCN)C(=O)N[C@H](C(=O)N1CCC[C@H]1C(=O)N[C@@H](Cc1ccc(O)cc1)C(=O)N[C@@H](Cc1ccccc1)C(=O)O)C(C)C (H-[GABA]PPIVPYF-OH)
Activity (HL-60 [1]): inactive

CC[C@H](C)[C@H](NC(=O)[C@@H]1CCCN1C(=O)[C@@H]1CCCN1C(=O)CCCN)C(=O)N[C@H](C(=O)N1CC=C[C@H]1C(=O)N[C@@H](Cc1ccc(O)cc1)C(=O)N[C@@H](Cc1ccccc1)C(=O)O)C(C)C (H-[GABA]PPIV[ΔPro]YF-OH)
Activity (HL-60 [1]): inactive

CC[C@H](C)[C@H](NC(=O)[C@@H]1CCCN1C(=O)[C@@H]1CCCN1C(=O)CCN)C(=O)N[C@H](C(=O)NCC(=O)N[C@@H](Cc1ccc(O)cc1)C(=O)N[C@@H](Cc1ccccc1)C(=O)O)C(C)C (H-[βAla]PPIVGYF-OH)
Activity (HL-60 [1]): inactive

CC[C@H](C)[C@@H]1NC(=O)[C@@H]2CCCN2C(=O)[C@@H]2CCCN2C(=O)CNC(=O)[C@H](Cc2ccccc2)NC(=O)[C@H](Cc2ccc(O)cc2)NC(=O)[C@@H]2CCCN2C(=O)[C@H](C(C)C)NC1=O (cyclo(FGPPIVPY))
Activity (MCF7): 17.3%
Activity (HL-60 [1]): 42%
Activity (HL-60 [2]): Dose-dependent effect
Activity (HL-60 [3]): Dose-dependent effect
Activity (HL-60 [4]): Dose-dependent effect
Activity (HL-60 [5]): Active
Activity (RBL-2H3): Active

CC[C@H](C)[C@@H]1NC(=O)[C@@H]2CCCN2C(=O)[C@@H]2CCCN2C(=O)CCCNC(=O)[C@H](Cc2ccccc2)NC(=O)[C@H](Cc2ccc(O)cc2)NC(=O)CNC(=O)[C@H](C(C)C)NC1=O (cyclo(F[GABA]PPIVGY))
Activity (HL-60 [1]): 11%

CC[C@H](C)[C@@H]1NC(=O)[C@@H]2CCCN2C(=O)[C@@H]2CCCN2C(=O)CCCNC(=O)[C@H](Cc2ccccc2)NC(=O)[C@H](Cc2ccc(O)cc2)NC(=O)[C@@H]2CCCN2C(=O)[C@H](C(C)C)NC1=O (cyclo(F[GABA]PPIVPY))
Activity (MCF7): 11.8%
Activity (HL-60 [1]): 56.6%
Activity [7]: 11.4%
Activity (Jurkat): 12%
Activity (HL-60 [8]): 17%
Activity (HL-60 [2]): Dose-dependent effect
Activity (HL-60 [3]): Dose-dependent effect
Activity (HL-60 [4]): Dose-dependent effect
Activity (B16-F1): 13.9%
Activity (A-375 [9]): 48%
Activity (B16-F10): 13.6%
Activity [10]: 17%
Activity (HL-60 [5]): Active
Activity (RBL-2H3): Active

CC[C@H](C)[C@@H]1NC(=O)[C@@H]2CCCN2C(=O)[C@@H]2CCCN2C(=O)CCCNC(=O)[C@H](Cc2ccccc2)NC(=O)[C@H](Cc2ccc(O)cc2)NC(=O)[C@@H]2C=CCN2C(=O)[C@H](C(C)C)NC1=O (cyclo(F[GABA]PPIV[ΔPro]Y))
Activity (HL-60 [1]): 7%

CC[C@H](C)[C@@H]1NC(=O)[C@@H]2CCCN2C(=O)[C@@H]2CCCN2C(=O)CCNC(=O)[C@H](Cc2ccccc2)NC(=O)[C@H](Cc2ccc(O)cc2)NC(=O)[C@@H]2CCCN2C(=O)[C@H](C(C)C)NC1=O (cyclo(F[βAla]PPIVPY))
Activity (MCF7): 18.9%
Activity (HL-60 [1]): 33.1%
Activity (HL-60 [2]): Dose-dependent effect
Activity (HL-60 [3]): Dose-dependent effect
Activity (HL-60 [4]): Dose-dependent effect
Activity (HL-60 [5]): Active
Activity (Tubulin (Sus scrofa) [11]): Active

CC[C@H](C)[C@H](NC(=O)NCCOCCN)C(=O)N[C@H](C(=O)N1CC=C[C@H]1C(=O)N[C@@H](Cc1ccc(OCc2ccccc2)cc1)C(=O)N[C@@H](Cc1ccccc1)C(=O)O)C(C)C ({NH(CH2)2O(CH2)2NH2-CO}-IV[ΔPro]Y(Bn)F-OH)
Activity (HL-60 [1]): inactive

Ac-LVPPPPIVPYF-NH2
Activity (MCF7): inactive
Activity (HL-60 [12]): 6.5%
Activity (HL-60 [1]): inactive
Activity [7]: 2.3%
Activity (Jurkat): 4%
Activity (HL-60 [8]): 7.7%
Activity (B16-F1): inactive
Activity (B16-F10): inactive
Activity (Homo sapiens [13]): inactive
Activity (A-375 [14]): inactive
Activity (A-375 [15]): inactive
Activity (Homo sapiens [16]): inactive

Ac-LVPPPPIVPYF-OH
Activity (HL-60 [12]): 7.2%
Activity (HL-60 [1]): inactive

Ac-PPIVPYF-OH
Activity (HL-60 [1]): inactive

Ac-VPPPPI-NH2
Activity (HL-60 [1]): inactive

H-GPPIVPYF-OH
Activity (HL-60 [1]): inactive
